Consider 29 compounds from ChEMBL document CHEMBL5528068, “Structure-Activity Relationship Studies and Optimization of 4-Hydroxypyridones as GPR84 Agonists” (J Med Chem, 2024).

Each structure is given as a SMILES string. Converted amounts (≈) assume the structure as drawn.

Series [1] deals with T1, G-protein coupled receptor 84 (Homo sapiens, UniProt Q9NQS5). Nature of the series: Agonist activity at GPR84 (unknown origin) expressed in HTLA cells assessed as beta-arrestin recruitment incubated for 1 day by PRESTO-Tango assay. In general terms: Arrestin recruitment assays detect the binding of arrestin to an activated receptor.
T1 sequence (Q9NQS5 whole entry): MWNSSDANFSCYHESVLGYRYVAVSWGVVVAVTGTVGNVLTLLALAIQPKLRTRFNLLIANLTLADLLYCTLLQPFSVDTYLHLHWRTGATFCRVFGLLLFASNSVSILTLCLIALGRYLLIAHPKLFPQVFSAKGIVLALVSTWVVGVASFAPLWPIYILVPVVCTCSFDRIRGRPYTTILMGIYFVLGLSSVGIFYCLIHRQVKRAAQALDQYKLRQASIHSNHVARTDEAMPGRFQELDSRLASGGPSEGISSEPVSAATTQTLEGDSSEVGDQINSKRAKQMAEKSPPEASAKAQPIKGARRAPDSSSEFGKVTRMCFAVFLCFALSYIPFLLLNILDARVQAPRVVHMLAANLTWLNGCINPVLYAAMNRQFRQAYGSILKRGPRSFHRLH
Series [2] in a line: Dissociation constant, pKa of compound by UV spectrophotometric analysis.
The nature of series [3]: Solubility in PBS at pH 7.4 incubated for 24 hrs by HPLC analysis.
Series [4] concerns the target T1, G-protein coupled receptor 84. Put plainly: Agonist activity at GPR84 (unknown origin) expressed in Flp-In-T-REx-293 cells transfected with GalphaI incubated for 1 hr by Topcount scintillation counting method.
The target is the same in series [5]. Nature of the series: Agonist activity at GPR84 (unknown origin) expressed in doxycycline induced Flp-In-T-REx-293 cells transfected with GalphaI preincubated for 15 mins in presence of IBMX followed by forskolin stimulation for 45 mins by time-resolved fluorescence assay.
For series [6] the target is unchanged. Nature of the series: Agonist activity at GPR84 (unknown origin) expressed in HEK293T cells expressing beta-arrestin 2-nanoluciferase incubated for 5 mins by beta-arrestin recruitment based BRET assay.
The target is the same in series [7]. Nature of the series: Displacement of [3H]140 from GPR84 (unknown origin) expressed in Flp-In-T-REx-293 cells transfected with GalphaI incubated for 1 hr by liquid scintillation spectrometry analysis. (In a radioligand displacement assay an active substance lowers the binding of a labelled ligand.)

For orientation: EC50 means the concentration that produces a half-maximal response. With `CCCCCCCCCCCc1cc(O)cc(=O)[nH]1`, the 50% effective concentration (EC50) in series [1] was 0.427 nM.
The term pKa denotes the pH at which an ionisable group is half protonated. A high value points to a weaker acid or stronger base. With `CCCCCCCc1cc(O)cc(O)n1`, in series [1], the concentration giving a half-maximal response (EC50) was 0.0468 nM. Also, in series [2], the pKa was determined as 6.68.
Turning to `CCCCCCCCc1cc(O)cc(O)n1`, the 50% effective concentration (EC50) in series [1] was 0.0275 nM.
A word on the solubility: it is how much of the substance goes into solution per volume. A higher solubility goes with a readily soluble substance. Compound `CCCCCCCCCc1cc(O)cc(O)n1` displayed a solubility at 24 h in series [3] of 10 µM (≈ 2.37 µg/mL).
On to `CCCCCCCCNc1cc(O)cc(=O)[nH]1`, for which, in series [1], the concentration for a half-maximal effect (EC50) was 3.31 nM.
On to `O=c1cc(O)cc(CCCOc2ccccc2)[nH]1`, for which the EC50 in series [1] was 4.17 nM.
`O=C1c2ccccc2C(=O)N1CCCCc1cc(O)cc(=O)[nH]1`: the EC50 in series [1] is 3240 nM.
In the case of `CCCCc1ccc(-c2cc(O)cc(O)n2)cc1`, the concentration giving a half-maximal response (EC50) was 25.7 nM in series [1], 63.1 nM in series [4], 18.2 nM in series [5] and 1620 nM in series [6]. The same compound showed a pKa in series [2] of 8.04.
Regarding `CCCC(=O)NCCCCc1cc(O)cc(=O)[nH]1`, in series [1], the concentration for a half-maximal effect (EC50) was 23400 nM.
For `CCCCCc1ccc(-c2cc(O)cc(=O)[nH]2)cc1`, the concentration giving a half-maximal response (EC50) in series [1] is 12.6 nM; in series [4], 26.3 nM; in series [5], 19.5 nM; in series [6], 2630 nM.
As usually defined, the Ki is a measure of affinity in units of concentration, obtained from inhibition or displacement. Regarding `CCCc1ccc(CCc2cc(O)cc(=O)[nH]2)cc1`, the concentration giving a half-maximal response (EC50) was 0.302 nM in series [1], 1.2 nM in series [4], 0.331 nM in series [5] and 214 nM in series [6]. In series [7], this compound gave a Ki of 13.5 nM.
`CCc1ccc(CCc2cc(O)cc(=O)[nH]2)cc1`: the half-maximal effective concentration (EC50) in series [1] was 4.47 nM.
In the case of `O=c1cc(O)cc(CCc2cccc(-c3ccccc3)c2)[nH]1`, the EC50 in series [1] is 4270 nM.
On to `O=c1cc(O)cc(CCc2ccccc2)[nH]1`, for which, in series [2], the pKa stood at 6.6.
Consider `CCCCCCCCCCc1cc(O)cc(=O)[nH]1`, for which the concentration for a half-maximal effect (EC50) in series [1] is 0.24 nM.
Regarding `Cc1nnc(-c2ccc(-c3cc(O)cc(=O)[nH]3)cc2)o1`, in series [1], the EC50 was 11700 nM.
The same measure, in the same setting: the same measure for `CCCc1ccc(COc2cc(O)cc(=O)[nH]2)cc1`: 3.24 nM.
`O=c1cc(O)cc(-c2ccc(Oc3ccccc3)nc2)[nH]1`: the concentration giving a half-maximal response (EC50) in series [1] is 1.05 nM; in series [5], 15.8 nM; in series [6], 263 nM. This compound had a Ki in series [7] of 13.8 nM.
As for `Cc1cccc(CCc2cc(O)cc(=O)[nH]2)c1`, in series [1], the half-maximal effective concentration (EC50) is 389 nM.
As for `CCOc1ccc(CCc2cc(O)cc(=O)[nH]2)cc1`, the 50% effective concentration (EC50) is 44.7 nM in series [1], 33.1 nM in series [4], 15.8 nM in series [5] and 7240 nM in series [6].
The corresponding values for `CC(C)Cc1ccc(CCc2cc(O)cc(=O)[nH]2)cc1` are 12.6 nM, 12 nM, 6.76 nM and 912 nM.
`O=c1cc(O)cc(CCc2ccc3c(c2)Cc2ccccc2-3)[nH]1`: the EC50 in series [1] was 5010 nM; in series [4], 525 nM; in series [5], 1660 nM.
Regarding `CCCCCCCC#Cc1cc(O)cc(=O)[nH]1`, the EC50 was 5.75 nM in series [1], 24 nM in series [4], 14.5 nM in series [5] and 550 nM in series [6].
Consider `O=c1cc(O)cc(CCc2ccc(OC(F)(F)F)cc2)[nH]1`, for which the EC50 in series [1] was 11 nM.
Regarding `Cc1ccc(CCc2cc(O)cc(=O)[nH]2)cc1`, the half-maximal effective concentration (EC50) in series [1] is 13.8 nM.
`O=c1cc(O)cc(-c2ccc(Oc3cncnc3)nc2)[nH]1`: the EC50 in series [1] was 102 nM.
Consider `CCCCCCCOc1cc(O)cc(=O)[nH]1`, for which the half-maximal effective concentration (EC50) in series [1] is 1.32 nM.
`O=c1cc(O)cc(-c2ccc(Oc3ccccc3)cc2)[nH]1`: the EC50 was 0.912 nM in series [1], 4.27 nM in series [4], 1.26 nM in series [5] and 209 nM in series [6]. This compound gave an inhibition constant (Ki) in series [7] of 14.8 nM.
On to `CC(C)(C)c1ccc(CCc2cc(O)cc(=O)[nH]2)cc1`, for which the EC50 in series [1] is 2.95 nM.
